Results on one molecule are retold here after publication PMC7413074 (Journal of pharmacy & pharmaceutical sciences : a …, 2019).

For data set [1] the following is noted: humans; cited from earlier work.
A short description of data set [2]: in vivo. The following applies: CD1-nude, mouse, Kp,uu (unbound ECF to plasma partition coefficient), mean (SD).
The conditions of data set [3]: female, CD1-nude, mouse, in vivo.
The conditions of data set [4]: CD1-nude, mouse.
Data set [5] relates to medulloblastoma/primitive neuroectodermal tumor (cell line JRMB-6). The following applies: single agent, 130 mg/kg IP daily for five consecutive days; cited from earlier work.
The nature of data set [6]: in vivo. The following applies: female, CD1-nude, mouse, ip, 130 mg/kg.
Data set [7] can be described thus: in vitro. The following applies: CD1, mouse, plasma.

Where two headings read alike, the source gives them in different places.

In general, AUC refers to concentration integrated over time. Read a low AUC as less exposure. A word on the fraction unbound: it is the share of the substance not bound to proteins or other matrix. Regarding `O=P1(N(CCCl)CCCl)NCCCO1` (stereo not drawn) [cyclophosphamide], the “FU (fraction unbound)” value in data set [1] is given as 7-17%. The Kp uu in data set [2] was 0.22. For the same molecule, in data set [3], the “Central clearance CL, estimate (RSE%)” value is reported as 4.4 (3.7) L/h/kg; the “Central volume V, estimate (RSE%)” value is on record as 0.65 (5.0) L/kg; the “Inter-individual variability, central clearance η-CL, estimate (RSE%)” value was 0.11 (17); the “Peripheral clearance Q, estimate (RSE%)” value is reported as 0.18 (4.3) L/h/kg. In data set [3], the “Peripheral volume Vp, estimate (RSE%)” value is reported as 0.062 (2.6) L/kg and the “Proportional residual variability εprop, estimate (RSE%)” value is 0.24 (11). Besides, in data set [3] (ip, 130 mg/kg), the “Mean observed maximum concentrations” value came to 352.9 µM. Besides, in data set [4] (in vivo), the “AUCECF,0-5h (unbound brain ECF exposure), mean (SD)” value is 6.3 (1.3) μM·h; the “AUCECF,0-5h (unbound tumor ECF exposure), mean (SD)” value is listed as 4.0 (1.4) μM·h; the “AUCECF,0-5h (unbound tumor or brain ECF exposure), mean (SD)” value is 5.2 (1.8) μM·h; the “Influx clearance CLin, estimate (RSE%)” value is given as 4.3·10^−4 (16) L/h/kg. Moreover, in data set [4] (in vivo), the “Inter-individual variability, influx clearance η-CLin, estimate (RSE%)” value is reported as 0.31 (51) and the “Proportional residual variability εprop, estimate (RSE%)” value was 0.45 (12). In data set [4] (not told), the “Efflux clearance CLef, estimate (RSE%)” value is given as 2.4·10^−3 (7.0) L/h/kg and the “Inter-individual variability, efflux clearance η-CLef, estimate (RSE%)” value is recorded as 0.23 (22). For the same molecule, in data set [5], the Response rate is reported as 85% and the “Survival versus saline controls” value is given as “statistically improved survival”. Also, the area under the curve (AUC) in data set [6] stood at 113 µM·h. This molecule also gave a fraction unbound in data set [7] of 0.26.
